Test results taken from BindingDB's records for doi:10.1021/acs.jmedchem.7b00843 (Wuxi Apptec, 2017).

Assay: Inhibition of DLK in CD-1 mouse DRG neuron assessed as axonal protection pre-incubated for 2 hrs before NGF deprivation for 16 to 20 hrs by Campenot chamber based fluorescence assay

Row | EC50 | SMILES
1 | 457 nM | Nc1ncc(-c2cc([C@H]3[C@@H]4CN(C5COC5)C[C@@H]43)n(CC3CC3)n2)cc1C(F)(F)F
2 | 574 nM | CC(C)n1nc(-c2cnc(N)c(OC(F)(F)F)c2)cc1[C@H]1[C@@H]2CN(C3COC3)C[C@@H]21
